# Assay results as given in ChEMBL document CHEMBL3507680, “University of Dundee, Gates Library screen for HepG2 cell viability”.
# Test: Human HepG2 cell viability assay in 384 well format
# Type: toxicity, cell-based
# Design: dose 125 nL, time 70.5 hour; cytotoxicity at 70.5 h: concentration not given beside the values
# Details: HepG2 cells, read-out: Inhibition
row,SMILES,cytotoxicity at 70.5 h [%]
1,Cc1nn(C)c2cnn(CC(=O)NCCc3ccccc3)c12,-6.1
2,Cc1nnc(NC(=O)CN2CCc3c(nc(C(C)C)n3C)C2)s1,-8.19
3,Cn1cc(-c2ncnc3c2CCN(CC2CCOC2)CC3)cn1 (centres undefined),-7.49
4,Cc1nc(N2CCN(C(=O)c3cccs3)CC2)cc(-n2cccc2)n1,1.27
5,O=C(Cc1ccc2c(c1)OCO2)N1CCCN(c2ccccc2)CC1,-4.44
6,CC(C)c1cc(C(=O)N(C)C(C)c2nccs2)no1 (centres undefined),-7.34
7,COCCN1C2(CCN(CC3CC3)C2)c2ccccc2S1(=O)=O (centres undefined),4.8
8,Cc1cccc(NC(=O)N2CCn3cnc(COCC4CC4)c3C2)c1,-13.2
9,Cc1cccc(OCCC(=O)N2CCN(CC(=O)NC3CC3)CC2)c1C,-11.9
10,Cc1cc(C(=O)N2CCc3nnc(N)cc3C2)c(C)n1-c1cccnc1,-1.23
11,O=C(O)[C@@H]1CN(Cc2c[nH]c(CC3CCCC3)n2)C[C@H]1c1ccncc1,-4.68
12,Cc1noc(C)c1CN(C)Cc1csc(-c2ccc(C(C)C)cc2)n1,19.9
13,CCOc1ccc2oc(-c3cn(C)nc3C)c(O)c(=O)c2c1,32.5
14,O=C(C1CCCC1)N1CC2(CCCN(C3COC3)C2)Cc2ccccc21 (centres undefined),-15.4
15,OCC1(CC2CCCCO2)CCN(c2cnc3ccccc3n2)CC1 (centres undefined),-12.6
16,Cc1cn(Cc2nc(CC(C)C)nn2-c2ccccn2)c(=O)[nH]c1=O,-1.31
17,O=C1NCCCc2[nH]c(Cc3cccc(Cl)c3)nc21,0.226
18,CN1CCO[C@@H]2CN(C(=O)c3ccc4ncccc4c3)CC[C@@H]2C1,-8.09
19,CC(Cn1cncn1)Nc1ccc(-c2nccn2C)nn1 (centres undefined),-7.86
20,Cc1nc(NC(=O)C(C)N2CCN(c3ccccc3F)CC2)sc1C (centres undefined),-2.47
21,CN(C)c1ccc(CNc2cncc(-n3cccn3)n2)cc1,-4.47
22,CCCNC(=O)CSCc1ccc(S(=O)(=O)N(C)C)o1,-6.98

row,SMILES,cytotoxicity at 70.5 h [%]
1,O=C(NC[C@H]1CC[C@H](c2nnc(-c3cccnc3)o2)CC1)C1CC1,6.18
2,COc1ccc(CN(C)C(=O)NCc2c(C)cc(C)nc2OC)cc1,-5.78
3,CCS(=O)(=O)CCNc1nc(C2CCCC2)nc2c1cnn2C,-6.16
4,O=C(NC1CCN(CC2CC2)C1)c1ccc(C(=O)c2cc[nH]c2)cc1 (centres undefined),-9.44
5,CN(C)CCOCC1CN(Cc2ccoc2)Cc2nnn(C)c21 (centres undefined),-11.2
6,Cc1ccc(-c2noc([C@H](N)CC(C)C)n2)nn1,7.92
7,COCCn1c2c(ccc1=O)CCN(C(=O)Cc1ccsc1)CC2,2.04
8,CCOC1COC2(CCN(S(=O)(=O)c3cccc(F)c3)CC2)C1 (centres undefined),-15.5
9,Cn1c(-c2ccc(F)cc2)cn2cc(C(=O)N3CCC(N)C3)nc2c1=O (centres undefined),-9.46
10,CC1(C)CC(NC(=O)c2cnn(-c3ccccc3F)c2N)CC(C)(C)N1,19.7
11,Cc1nc2n(n1)CC(Nc1nc(-c3ccccc3)no1)CC2 (centres undefined),-0.185
12,Cc1cc(CN2CCC(CNC(=O)C3(c4ccccc4)CC3)C2)[nH]n1 (centres undefined),6.56
13,COCCN1CCN(C(=O)c2ccc(C)cc2OC)[C@H]2CS(=O)(=O)C[C@H]21,-11.7
14,CCc1ccc(OCCn2cccn2)cc1,23.9
15,CCNc1ncc(C(=O)N[C@H](C(N)=O)c2ccccc2)cn1,24
16,CN1CC(C(=O)NCc2cccnc2OCC(F)(F)F)CC1=O (centres undefined),-2.61
17,CCCc1noc(CNc2cc(C[S+](C)[O-])ccc2Cl)n1 (centres undefined),-3.29
18,CC(=O)N1CCO[C@@H]2CN(C(=O)NCc3ccccc3)CC[C@@H]2C1,9.54
19,Cc1cccc(CNCC2(O)CCCN(CC3CCCCC3)C2=O)n1 (centres undefined),-5.28
20,CCN1CCN(C(=O)c2cc(-c3cccn3C)n[nH]2)[C@H]2CS(=O)(=O)C[C@H]21,-18.3
21,Cc1nc(-c2nnc[nH]2)sc1C(=O)N1CCCC1Cn1cccn1 (centres undefined),-3.3
22,CCOCCC(=O)N1CCCN(c2ccccc2C)CC1,-4.5
